How the values were obtained:
[1] = biological target: T1, h-GABA-A α5β3γ2 (Homo sapiens, UniProt P18507+P31644); assay: [3H]flumazenil competition binding assay, membranes of HEK293 cells expressing GABAA receptors; settings: displacement of [3H]-Flumazenil 0.5 nM, HEK293 cells expressing human receptors, mean of two determinations; Table 1
Experimental: The affinity of compounds at GABAA receptor subtypes was measured by competition for [3H]flumazenil (85 Ci/mmol; Roche) binding to HEK293 cells expressing rat (stably transfected) or human (transiently transfected) receptors of composition α1β3γ2, α2β3γ2, α3β3γ2 and α5β3γ2.
Cell pellets were suspended in Krebs-tris buffer (4.8 mM KCl, 1.2 mM CaCl2), 1.2 mM MgCl2, 120 mM NaCl, 15 mM Tris; pH 7.5; binding assay buffer), homogenized by polytron for ca. 20 sec on ice and centrifuged for 60 min at 4° C. (50000 g; Sorvall, rotor: SM24=20000 rpm). The cell pellets were resuspended in Krebs-tris buffer and homogenized by polytron for ca. 15 sec on ice. Protein was measured (Bradford method, Bio-Rad) and aliquots of 1 mL were prepared and stored at −80° C.
Assays were incubated to equilibrium for 1 hour at 4° C. and harvested onto GF/C uni-filters (Packard) by filtration using a Packard harvester and washing with ice-cold wash buffer (50 mM Tris; pH 7.5). After drying, filter-retained radioactivity was detected by liquid scintillation counting. Ki values were calculated using Excel-Fit (Microsoft) and are the means of two determinations.

[2] = biological target: T1, h-GABA-A α5β3γ2; assay: Two-electrode voltage clamp electrophysiology in Xenopus laevis oocytes expressing GABAA receptors, modulation of GABA EC20 current; assay type: cell-based; design: host or cells: Xenopus laevis oocytes micro-injected with RNA transcripts of the subunits
Experimental: Xenopus laevis oocytes at maturation stages V-VI were used for the expression of cloned mRNA encoding GABAA receptor subunits. Oocytes ready for RNA micro-injection were bought from Ecocyte, Castrop-Rauxel, Germany and stored in modified Barth's medium (composition in mM: NaCl 88, KCl 1, NaHCO32.4, HEPES 10, MgSO4 0.82, CaNO3 0.33, CaCl2 0.33, pH=7.5) at 20° C. until the experiment.
Oocytes were plated in 96-well plates to be used in an automated instrument (Robo-ocyte, MultiChannelSystems, Reutlingen, Germany) for microinjection and electrophysiological recordings. Approximately 50 nl of an aqueous solution containing the RNA transcripts for the subunits of the desired GABAA receptor was injected into each oocyte. RNA concentrations ranged between 0.3 and 16 ng/μl/subunit and were adjusted in pilot experiments to obtain GABA responses of a suitable size and a maximal effect of the reference modulator, Beta-CCM (β-CCM), a betacarboline negative allosteric modulator (NAM) at the GABAA receptor benzodiazepine (BZD) binding site or Midazolam, a benzodiazepine positive allosteric modulator (PAM) at the GABAA receptor benzodiazepine (BZD) binding site. The concentration of the γ2 subunit encoding RNA usually was 5- to 10-fold higher than the RNAs encoding the other subunits. Oocytes were kept in modified Barth's medium (composition in mM: NaCl 88, KCl 1, NaHCO3 4, HEPES 10, MgSO4 0.82, CaNO3 0.33, CaCl2) 0.33, pH=7.5) at 20° C. until the experiment.
Electrophysiological experiments were performed on days 3 to 5 after the micro-injection of mRNA. During the experiment the oocytes were constantly superfused by a solution containing (in mM) NaCl 90, KCl 1, HEPES 5, MgCl2 1, CaCl2) 1 (pH 7.4). Oocytes were impaled by two glass microelectrodes (resistance: 0.4 MΩ) which were filled with a solution containing KCl 1M+K-acetate 1.5 M and voltage-clamped to −80 mV. The recordings were performed at room temperature using the Roboocyte two-electrode voltage clamp system (Multichannelsystem). After an initial equilibration period of 1.5 min GABA was added for 1.5 min at a concentration evoking approximately 20% of a maximal current response (EC20). After another rest interval of 2.5 min GABA was again added evoking a response of similar amplitude and shape. 0.5 min after the onset of this second GABA application the test compound, at a concentration corresponding to approximatively 30 fold its Ki, was added while GABA was still present. Current traces were recorded at a digitization rate of 10 Hz during and shortly before and after the GABA application.
Each compound and concentration was tested on at least 3 oocytes. Different oocytes were used for different compound concentrations. β-CCM, a negative allosteric modulator, or Midazolam, a positive allosteric modulators, were tested on a few (3-6) oocytes on each 96-well plate for a positive control at a maximally effective. β-CCM inhibited the GABA-evoked current by approximatively 50% (Fold increase ˜0.5), while Midazolam potentiated the GABA-induced current by approximatively 150% (Fold increase ˜2.5).
For the analysis, the digitized current traces of the first and second GABA response were superimposed and, if necessary, rescaled to equal maximal amplitudes. The ratio between the two responses during the time interval of test compound application was calculated point by point. The extremum of the resulting “ratio trace” was taken as the efficacy (“Fold increase”) of the compound expressed as “% modulation of GABA EC20” (100*(Fold increase-1)).

[3] = % modulation of GABA EC20 = 100*(Fold increase-1), Table 1
[4] = test compound at approx. 30 fold its Ki, GABA at EC20, Table 1
[5] = positive control at a maximally effective concentration, 3-6 oocytes per plate

| SMILES | Ki [1] [nM] | Efficacy (GABA) % [2, 3] [%] | Fold increase h-GABA-A α5β3γ2 oocyte [2, 4] | Fold increase [2, 5] | potentiation of the GABA-induced current [2, 5] [%] | Efficacy (GABA) % ([2]; reference compounds, % modulation of GABA EC20, Table 2) [%] | Fold increase h-GABA-A α5β3γ2 oocyte ([2]; reference compounds, Table 2) | inhibition of the GABA-evoked current [2, 5] [%] |
| --- | --- | --- | --- | --- | --- | --- | --- | --- |
| Cc1ccc(-c2noc(C)c2Cn2ncc(N3C[C@H](C)O[C@@H](C)C3)cc2=O)cn1 (single isomer, unassigned) [Example 29, 5-[(2S,6S)-2,6-dimethylmorpholin-4-yl]-2-[[5-methyl-3-(6-methyl-3-pyridyl)isoxazol-4-yl]methyl]pyridazin-3-one or enantiomer] | 1.4 | 228 | 3.28 |  |  |  |  |  |
| Cc1ccc(-c2noc(C)c2Cn2ncc(N3C[C@@H](C)O[C@H](C)C3)cc2=O)cn1 (single isomer, unassigned) [Example 30, 5-[(2R,6R)-2,6-dimethylmorpholin-4-yl]-2-[[5-methyl-3-(6-methyl-3-pyridyl)isoxazol-4-yl]methyl]pyridazin-3-one or enantiomer] | 0.5 | 216 | 3.16 |  |  |  |  |  |
| Cc1ccc(-c2noc(C)c2Cn2ncc(N3CC4(CC(C)CO4)C3)cc2=O)nn1 (single isomer, unassigned) [Example 240, 2-[[5-methyl-3-(6-methylpyridazin-3-yl)isoxazol-4-yl]methyl]-5-[(7R)-7-methyl-5-oxa-2-azaspiro[3.4]octan-2-yl]pyridazin-3-one or enantiomer] | 5.7 | 94 | 1.94 |  |  |  |  |  |
| Cc1ccc(-c2noc(C)c2Cn2ncc(N3CC4(CC(C)CO4)C3)cc2=O)nn1 (single isomer, unassigned) [Example 241, 2-[[5-methyl-3-(6-methylpyridazin-3-yl)isoxazol-4-yl]methyl]-5-[(7S)-7-methyl-5-oxa-2-azaspiro[3.4]octan-2-yl]pyridazin-3-one or enantiomer] | 5.4 | 80 | 1.8 |  |  |  |  |  |
| Cc1onc(-c2ccc(Cl)nc2)c1Cn1ncc(N2CC(OC(C)C(F)(F)F)C2)cc1=O (single isomer, unassigned) [Example 265] | 25.8 | 155 | 2.55 |  |  |  |  |  |
| Cc1onc(-c2ccc(Cl)nc2)c1Cn1ncc(N2CC(OC(C)C(F)(F)F)C2)cc1=O (single isomer, unassigned) [Example 266] | 35.8 | 136 | 2.36 |  |  |  |  |  |
| Cc1ccc(-c2noc(C)c2Cn2ncc(N3CC4(CC(F)CCO4)C3)cc2=O)cn1 (single isomer, unassigned) [Example 273] | 30 | 126 | 2.26 |  |  |  |  |  |
| Cc1ccc(-c2noc(C)c2Cn2ncc(N3CC4(CC(F)CCO4)C3)cc2=O)cn1 (single isomer, unassigned) [Example 274] | 15.8 | 110 | 2.1 |  |  |  |  |  |
| Cc1ccc(-c2noc(C)c2Cn2ncc(N3CC4(CCC(F)CO4)C3)cc2=O)cn1 (single isomer, unassigned) [Example 275] | 4.6 | 89 | 1.89 |  |  |  |  |  |
| Cc1ccc(-c2noc(C)c2Cn2ncc(N3CC4(CCC(F)CO4)C3)cc2=O)cn1 (single isomer, unassigned) [Example 276] | 36.2 | 102 | 2.02 |  |  |  |  |  |
| Cc1ccc(-c2noc(C)c2Cn2ncc(N3CC4(CC(F)CCO4)C3)cc2=O)nn1 (single isomer, unassigned) [Example 287] | 3.8 | 77 | 1.77 |  |  |  |  |  |
| Cc1ccc(-c2noc(C)c2Cn2ncc(N3CC4(CCC(F)CO4)C3)cc2=O)nn1 (single isomer, unassigned) [Example 288] | 3.2 | 63 | 1.63 |  |  |  |  |  |
| Cc1onc(-c2ccc(Cl)nc2)c1Cn1ncc(N2CC3(CC(F)CCO3)C2)cc1=O (single isomer, unassigned) [Example 296, (R or S)-2-((3-(6-chloropyridin-3-yl)-5-methylisoxazol-4-yl)methyl)-5-(8-fluoro-5-oxa-2-azaspiro[3.5]nonan-2-yl)pyridazin-3(2H)-one] | 27.7 | 84 | 1.84 |  |  |  |  |  |
| Cc1onc(-c2ccc(Cl)nc2)c1Cn1ncc(N2CC3(CCC(F)CO3)C2)cc1=O (single isomer, unassigned) [Example 297] | 10.7 | 130 | 2.3 |  |  |  |  |  |
| Cc1onc(-c2ccc(Cl)nc2)c1Cn1ncc(N2CC3(CCC(F)CO3)C2)cc1=O (single isomer, unassigned) [Example 298] | 25.4 | 116 | 2.16 |  |  |  |  |  |
| Cc1ccc(-c2noc(C)c2Cn2ncc(N3CC4(CC(C(F)(F)F)CCO4)C3)cc2=O)nn1 (single isomer, unassigned) [Example 311] | 2.4 | 88 | 1.88 |  |  |  |  |  |
| Cc1ccc(-c2noc(C)c2Cn2ncc(N3CC4(CC(C(F)(F)F)CCO4)C3)cc2=O)nn1 (single isomer, unassigned) [Example 312] | 6.5 | 127 | 2.27 |  |  |  |  |  |
| Cc1ncc2n1-c1ccc(Cl)cc1C(c1ccccc1F)=NC2 [Midazolam, reference compound] |  |  |  | ~2.5 | ~150 |  |  |  |
| Cc1onc(-c2ccc(Cl)cn2)c1COc1ccc(C(=O)N2CCOCC2)cn1 [RO-309, reference compound] |  |  |  |  |  | −17 | 0.83 |  |
| COC(=O)c1cc2c(cn1)[nH]c1ccccc12 [β-CCM, reference compound] |  |  |  | ~0.5 |  |  |  | ~50 |

Source: US11840528B2 (Hoffmann-La Roche Inc., priority 2018, dated 2023)
